The record followed here is US9873709B2 (priority 2013, dated 2018).

Where a name gives a salt, the structure may show the parent alone. Read-outs that look alike come from different tables or passages of the source.

Assay [1] addresses T1, isolated recombinant JAK2 kinase domain (Homo sapiens (Human), UniProt O60674). Put plainly: biochemical.
Assay [2] concerns JAK1-dependent STAT6 phosphorylation downstream of IL-13 stimulation in TF-1 human erythroleukemia cells. As to the kind of experiment: cells. Particulars: TF-1, read-out: IL-13-pSTAT6 IC50.
Assay [3] concerns the target T1, isolated recombinant JAK2 kinase domain. Conditions: read-out: JAK2 Ki.
The test system of assay [4] is JAK1-dependent STAT6 phosphorylation downstream of IL-13 stimulation in BEAS-2B human bronchial epithelial cells. As to the kind of experiment: cells. Particulars: read-out: IL13-pSTAT6 BEASB2B IC50.
Description: Inhibitor potency (EC50) was determined in cell-based assays designed to measure JAK1 dependent STAT phosphorylation.
Prior to use in the assays, TF-1 cells were starved of GM-CSF overnight in OptiMEM medium (Life Technologies, Grand Island, N.Y.) supplemented with 0.5% charcoal/dextran stripped fetal bovine serum (FBS), 0.1 mM non-essential amino acids (NEAA), and 1 mM sodium pyruvate. The assays were run in 384-well plates in serum-free OptiMEM medium using 300,000 cells per well. In a second assay approach, BEAS-2B human bronchial epithelial cells obtained from ATCC were plated at 100,000 cells per well of a 96-well plate one day prior to the experiment. The BEAS-2B assay was run in complete growth medium (bronchial epithelial basal medium plus bulletkit; Lonza; Basel, Switzerland).
Test compounds were serially diluted 1:2 in DMSO and then diluted 1:50 in medium just before use. Diluted compounds were added to the cells, for a final DMSO concentration of 0.2%, and incubated for 30 min (for the TF-1 assay) or 1 hr (for the BEAS-2B assay) at 37° C. Then, cells were stimulated with human recombinant cytokine at their respective EC90 concentrations, as previously determined for each individual lot. […] The resultant samples were frozen in the plates at −80° C. Compound mediated inhibition of STAT6 phosphorylation was measured in the cell lysates using MesoScale Discovery (MSD) technology (Gaithersburg, Md.).
The mark [5] stands for this setting: isolated recombinant JAK2 kinase domain, 25 μM ATP.

T1 sequence (O60674 849-1124): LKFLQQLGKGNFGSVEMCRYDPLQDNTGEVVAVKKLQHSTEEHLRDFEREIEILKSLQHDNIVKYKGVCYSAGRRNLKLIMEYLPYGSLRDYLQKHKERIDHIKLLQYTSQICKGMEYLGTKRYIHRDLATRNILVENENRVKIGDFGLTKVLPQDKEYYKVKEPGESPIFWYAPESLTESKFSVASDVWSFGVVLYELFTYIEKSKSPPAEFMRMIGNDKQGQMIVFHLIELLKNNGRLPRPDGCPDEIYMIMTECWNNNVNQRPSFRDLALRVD

Consider `CC(=O)NC1CCN(c2cccn3nc(Nc4ccc(C(=O)N(C)C5CCN(C)CC5)cc4)nc23)CC1` [Example 1-9, 4-[[8-(4-acetamido-1-piperidyl)-[1,2,4]triazolo[1,5-a]pyridin-2-yl]amino]-N-methyl-N-(1-methyl-4-piperidyl)benzamide; hydrochloride], for which the Ki (as a rule, a measure of affinity in units of concentration, obtained from inhibition or displacement) in assay [1] turned out to be 63.2 nM.
In the case of `CC(=O)N1CCN(c2cccn3nc(Nc4ccc(C(=O)N(C)C5CCN(C)CC5)cc4)nc23)CC1` [Example 1-10, 4-[[8-(4-acetylpiperazin-1-yl)-[1,2,4]triazolo[1,5-a]pyridin-2-yl]amino]-N-methyl-N-(1-methyl-4-piperidyl)benzamide], the inhibitory constant (Ki) in assay [1] came out at 74.7 nM. For the same compound, the IC50 (usually the midpoint of a concentration-inhibition curve) in assay [2] was more than 10000 nM.
For `CN1CCC(N(C)C(=O)c2ccc(Nc3nc4c(N5CCC(C#N)CC5)cccn4n3)cc2)CC1` [Example 1-11, 4-[[8-(4-cyano-1-piperidyl)-[1,2,4]triazolo[1,5-a]pyridin-2-yl]amino]-N-methyl-N-(1-methyl-4-piperidyl)benzamide], in that order: 6.28 nM and 235 nM.
For `CN1CCC(N(C)C(=O)c2ccc(Nc3nc4c(N5CCCCC5)cccn4n3)cc2)CC1` [Example 1-12, N-methyl-N-(1-methyl-4-piperidyl)-4-[[8-(1-piperidyl)-[1,2,4]triazolo[1,5-a]pyridin-2-yl]amino]benzamide; dihydrochloride] the same measures were 77.5 nM and 3400 nM.
For `CN1CCC(N(C)C(=O)c2ccc(Nc3nc4c(N5CCN(c6ccccc6)CC5)cccn4n3)cc2)CC1` [Example 1-13, N-methyl-N-(1-methyl-4-piperidyl)-4-[[8-(4-phenylpiperazin-1-yl)-[1,2,4]triazolo[1,5-a]pyridin-2-yl]amino]benzamide] the same measures were 13.1 nM and 494 nM.
As to `CN1CCC(N(C)C(=O)c2ccc(Nc3nc4c(N5CCC(O)(c6cccnc6)CC5)cccn4n3)cc2)CC1` [Example 1-19, 4-[[8-[4-hydroxy-4-(3-pyridyl)-1-piperidyl]-[1,2,4]triazolo[1,5-a]pyridin-2-yl]amino]-N-methyl-N-(1-methyl-4-piperidyl)benzamide], the Ki in assay [1] amounted to 32 nM.
For the compound `CN1CCC(N(C)C(=O)c2ccc(Nc3nc4c(N5CCC(C(C)(C)O)CC5)cccn4n3)cc2)CC1` [Example 1-29, 4-[[8-[4-(1-hydroxy-1-methyl-ethyl)-1-piperidyl]-[1,2,4]triazolo[1,5-a]pyridin-2-yl]amino]-N-methyl-N-(1-methyl-4-piperidyl)benzamide], in assay [1], the inhibition constant Ki amounted to 47.4 nM.
With `CN1CCC(N(C)C(=O)c2ccc(Nc3nc4c(N5CCC(O)(c6ccc(F)cc6)CC5)cccn4n3)cc2)CC1` [Example 1-37, 4-[[8-[4-(4-fluorophenyl)-4-hydroxy-1-piperidyl]-[1,2,4]triazolo[1,5-a]pyridin-2-yl]amino]-N-methyl-N-(1-methyl-4-piperidyl)benzamide], in assay [1], the inhibition constant (Ki) came out at 6.7 nM. In addition, the concentration for half-maximal inhibition (IC50) in assay [2] was 76.3 nM.
For `CC(C)c1ccc(C2(O)CCN(c3cccn4nc(Nc5ccc(C(=O)N(C)C6CCN(C)CC6)cc5)nc34)CC2)cc1` [Example 1-38, 4-[[8-[4-hydroxy-4-(4-isopropylphenyl)-1-piperidyl]-[1,2,4]triazolo[1,5-a]pyridin-2-yl]amino]-N-methyl-N-(1-methyl-4-piperidyl)benzamide], in that order: 5.59 nM and 152 nM.
`CN1CCC(N(C)C(=O)c2ccc(Nc3nc4c(N5CCC(CC#N)(c6ccccc6)CC5)cccn4n3)cc2)CC1` [Example 1-41, 4-[[8-[4-(cyanomethyl)-4-phenyl-1-piperidyl]-[1,2,4]triazolo[1,5-a]pyridin-2-yl]amino]-N-methyl-N-(1-methyl-4-piperidyl)benzamide]: the Ki in assay [3] (setting [5]) amounted to 0.2 nM. For the same compound, the IC50 in assay [4] was 42 nM; in assay [2] it was 15.9 nM.
On to `CN1CCC(N(C)C(=O)c2ccc(Nc3nc4c(N5CCC(O)(c6ccccc6)CC5)cccn4n3)cc2)CC1` [Example 1-43, 4-[[8-(4-hydroxy-4-phenyl-1-piperidyl)-[1,2,4]triazolo[1,5-a]pyridin-2-yl]amino]-N-methyl-N-(1-methyl-4-piperidyl)benzamide], for which the inhibition constant (Ki) in assay [3] (setting [5]) stood at 7.84 nM. Moreover, in assay [4], the 50% inhibitory concentration (IC50) came to 968 nM.
With `O=C(c1ccc(Nc2nc3c(N4CCC(O)(c5ccc(Cl)cc5)CC4)cccn3n2)cc1)N1CCC(N2CCOCC2)CC1` [Example 1-125, [4-[[8-[4-(4-chlorophenyl)-4-hydroxy-1-piperidyl]-[1,2,4]triazolo[1,5-a]pyridin-2-yl]amino]phenyl]-(4-morpholino-1-piperidyl)methanone], in assay [3] (setting [5]), the inhibitory constant (Ki) is 0.63 nM. The figures for the IC50 in assay [4] and in assay [2] were 42.8 nM and 16.4 nM, respectively.
As to `NCCNC(=O)c1ccc(Nc2nc3c(N4CCC(O)(c5ccc(Cl)cc5)CC4)cccn3n2)cc1` [Example 1-175, N-(2-aminoethyl)-4-[[8-[4-(4-chlorophenyl)-4-hydroxy-1-piperidyl]-[1,2,4]triazolo[1,5-a]pyridin-2-yl]amino]benzamide], in assay [1], the Ki was 0.92 nM. In assay [2], the IC50 was 189 nM.
In the case of `CN1CCC(N(C)C(=O)c2ccc(Nc3nc4c(N5CCC(CCC#N)(c6ccc(Cl)cc6)CC5)cccn4n3)cc2)CC1` [Example 1-247, 4-{8-[4-(4-Chloro-phenyl)-4-(2-cyano-ethyl)-piperidin-1-yl]-1,8a-dihydro[1,2,4]triazolo[1,5-a]pyridine-2-ylamino}-N-methyl-N-(1-methyl-piperidin-4-yl)-benzamide], the Ki in assay [3] (setting [5]) amounted to 0.33 nM. Moreover, the values for the concentration for half-maximal inhibition (IC50) in assay [4] and in assay [2] were 115 nM and 18.4 nM, respectively.
As for `CO/N=C/C1(c2ccc(Cl)cc2)CCN(c2cccn3nc(Nc4ccc(C(=O)N(C)C5CCN(C)CC5)cc4)nc23)CC1` [Example 1-250], the Ki in assay [3] (setting [5]) turned out to be 1.29 nM. For the same compound, in assay [4], the IC50 came out at 732 nM.
Turning to `CSc1ccc(C2(CO)CCN(c3cccn4nc(Nc5ccc(C(=O)N(C)C6CCN(C)CC6)cc5)nc34)CC2)cc1` [Example 1-251, 4-([8-[4-(hydroxymethyl)-4-[4-(methylsulfanyl)phenyl]piperidin-1-yl]-[1,2,4]triazolo[1,5-a]pyridin-2-yl]amino)-N-methyl-N-(1-methylpiperidin-4-yl)benzamide], the Ki in assay [3] was 0.41 nM. For the same compound, the half-inhibitory concentration (IC50) in assay [4] worked out at 56.6 nM.
As to `CC(O)C1(c2ccc(Cl)cc2)CCN(c2cccn3nc(Nc4ccc(C(=O)N(C)C5CCN(C)CC5)cc4)nc23)CC1` (stereo not shown) [Example 1-252, 4-[[8-[4-(4-chlorophenyl)-4-(1-hydroxyethyl)-1-piperidyl]-[1,2,4]triazolo[1,5-a]pyridin-2-yl]amino]-N-methyl-N-(1-methyl-4-piperidyl)benzamide], the Ki in assay [3] (setting [5]) is 0.5 nM. The IC50 in assay [4] turned out to be 90.2 nM.
In the case of `CCOC(=O)CC1(c2ccc(Cl)cc2)CCN(c2cccn3nc(Nc4ccc(C(=O)N(C)C5CCN(C)CC5)cc4)nc23)CC1` [Example 1-254], in assay [3] (setting [5]), the Ki came out at 0.39 nM. Moreover, the IC50 in assay [4] stood at 661 nM; in assay [2], 89.9 nM.
For `CN1CCC(N(C)C(=O)c2ccc(Nc3nc4c(N5CCC(CC(F)F)(c6ccc(Cl)cc6)CC5)cccn4n3)cc2)CC1` [Example 1-256, 4-([8-[4-(4-chlorophenyl)-4-(2,2-difluoroethyl)piperidin-1-yl]-[1,2,4]triazolo[1,5-a]pyridin-2-yl]amino)-N-methyl-N-(1-methylpiperidin-4-yl)benzamide], in that order: 0.69 nM, 426 nM and 56.3 nM.
For `CN1CCC(N(C)C(=O)c2ccc(Nc3nc4c(N5CCC(CN)(c6ccc(Cl)cc6)CC5)cccn4n3)cc2)CC1` [Example 1-265, 4-([8-[4-(aminomethyl)-4-(4-chlorophenyl)piperidin-1-yl]-[1,2,4]triazolo[1,5-a]-pyridin-2-yl]amino)-N-methyl-N-(1-methylpiperidin-4-yl)benzamide], the Ki in assay [3] (setting [5]) was 0.57 nM. Moreover, the IC50 in assay [4] was 94.8 nM.
Regarding `CN1CCC(N(C)C(=O)c2ccc(Nc3nc4c(N5CCC(CO)(c6ccc(C(F)F)cc6)CC5)cccn4n3)cc2)CC1` [Example 1-267, 4-[(8-[4-[4-(difluoromethyl)phenyl]-4-(hydroxymethyl)piperidin-1-yl]-[1,2,4]triazolo[1,5-a]pyridin-2-yl)amino]-N-methyl-N-(1-methylpiperidin-4-yl)benzamide], in assay [3], the Ki came out at 0.25 nM. Besides, in assay [4], the IC50 came to 32.4 nM.
With `CC(=O)NCC1(c2ccc(Cl)cc2)CCN(c2cccn3nc(Nc4ccc(C(=O)N(C)C5CCN(C)CC5)cc4)nc23)CC1` [Example 1-268, 4-([8-[4-(4-chlorophenyl)-4-(acetamidomethyl)piperidin-1-yl]-[1,2,4]triazolo[1,5-a]pyridin-2-yl]amino)-N-methyl-N-(1-methylpiperidin-4-yl)benzamide], the Ki in assay [3] (setting [5]) was determined as 0.38 nM. Also, the concentration for half-maximal inhibition (IC50) in assay [4] was found to be 56.2 nM.
For `CN1CCCC12CN(C(=O)c1ccc(Nc3nc4c(N5CCC(CO)(c6ccc(Cl)cc6)CC5)cccn4n3)cc1)C2` [Example 1-274, [4-[[8-[4-(4-chlorophenyl)-4-(hydroxymethyl)-1-piperidyl]-[1,2,4]triazolo[1,5-a]pyridin-2-yl]amino]phenyl]-(5-methyl-2,5-diazaspiro[3.4]octan-2-yl)methanone], the Ki in assay [3] (setting [5]) was found to be 0.17 nM. In addition, the IC50 in assay [4] came to 28.9 nM; in assay [2], 7.9 nM.
Regarding `COC(=O)CCN1CCN(C(=O)Cn2cc(Nc3nc4c(N5CCC(CO)(c6ccc(Cl)cc6)CC5)cccn4n3)cn2)CC1` [Example 1-290, Methyl 3-(4-[2-[4-([8-[4-(4-chlorophenyl)-4-(hydroxymethyl)piperidin-1-yl]-[1,2,4]triazolo[1,5-a]pyridin-2-yl]amino)-1H-pyrazol-1-yl]acetyl]piperazin-1-yl)propanoate], the Ki in assay [3] (setting [5]) was determined as 0.3 nM. Besides, the 50% inhibitory concentration (IC50) in assay [4] is 5.9 nM.
As to `CN1CCC(N(C)C(=O)c2ccc(Nc3nc4c(N5C[C@@H]6C[C@](O)(c7ccccc7)C[C@@H]6C5)cccn4n3)cc2)CC1` [Example 1-292], in assay [1], the inhibition constant Ki was determined as 18.5 nM.
